Source: PubChem BioAssay AID179 (DTP/NCI, 2004)
Activity calls are given as the source filed them.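 The calls were made as follows: active = compounds giving half or more protection of infected cells from virus-caused growth loss, again on retest; inactive = the rest.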 Where a SMILES comes first, the peptide text is derived from it. [ ]: non-standard residue; d: D form. The star is where a group is joined. ξ: configuration not given here. NMeN = CN[C@@H](CC(N)=O)C(=O)O; NMeV = CN[C@H](C(=O)O)C(C)C; ξNMeV = CNC(C(=O)O)C(C)C; Boc = CC(C)(C)OC(=O)*; ξNMeA = CNC(C)C(=O)O

System: CEM cells HIV-1 protection, formazan growth assay
Test: NCI AIDS Antiviral Assay
Details: for IC50: measured here: growth of uninfected CEM cells
Method: The ability of compounds to protect human CEM cells from HIV-1 infection is measured as a screen for new compounds capable of inhibiting the HIV virus. Five concentrations of drug were tested on uninfected and infected cells and cell growth was measured using a soluble formazan assay. […] Compounds that provided at least 50% protection were retested. Compounds that provided at least 50% protection on retest were listed as moderately active. Compounds that reproducibly provided 100% protection were listed as confirmed active. […] Note that the inability to provide protection could be due to toxicity.

Structure (SMILES) | EC50 [µM] | IC50 [µM] | outcome
N#C/C(=C(/c1ccccc1)c1ccccn1)c1ccc(Cl)cc1 | > 2 | 1 | –
COC(=O)C(C)N(C)C(=O)[C@H](CC(N)=O)N(C)C(=O)[C@@H]1CCCN1C(=O)[C@H](C(C)C)N(C)C(=O)C(C(C)C)N(C)C(=O)[C@@H](NC(=O)OC(C)(C)C)C(C)C (stereo not given in full) (Boc-V[ξNMeV][NMeV]P[NMeN][ξNMeA]-OMe) | > 324 | > 324 | –
CC1(C)COC(c2cccc(C3=NC(C)(C)CO3)c2)=N1 | > 200 | > 200 | –
Cc1cn(CC(=O)NCCCO)c(=O)[nH]c1=O | > 200 | > 200 | –
O=[N+]([O-])C(=C1c2ccccc2-c2ccccc21)[N+](=O)[O-] | > 135 | 18.2 | –
CCCCOC(=O)C1CSSCC(NC(C)=O)C(=O)N1 (stereo not given) | > 200 | 112 | –
O=c1cc2c(Cl)cccc2n[nH]1 | > 195 | > 195 | –
O=[N+]([O-])c1cccc2nc3ccccc3c(NCCCNc3c4ccccc4nc4cccc([N+](=O)[O-])c34)c12 | > 200 | 0.0631 | –
CC#COS(=O)(=O)c1ccc(C)cc1 | > 251 | 110 | –
CN1CCN(c2nc3c(c(=O)n(C)c(=O)n3C)n2C)CC1 | > 759 | > 759 | –
Cc1cc(S(=O)(=O)NC2=NCc3c(F)cccc3N2)c(S)cc1Cl | > 97.7 | 72.4 | –
CC(=O)Nc1ccc(/C=C2\C(=O)NC(=S)N2/C=C(\C#N)c2ccc([N+](=O)[O-])cc2)cc1 | > 200 | 72.4 | –
Cc1ccccc1NC(=S)N/N=C(/c1ccccc1)c1ccccn1 | > 0.2 | 0.0676 | –
CCOc1ccc(N=Nc2ccc3oc(=O)c(/C(C)=N/NC(=O)CC(=O)Nc4cccc(OC)c4)cc3c2)cc1 | > 13.2 | > 13.2 | –
O=C(Cn1ccnc1[N+](=O)[O-])N(CCO)CCO | > 977 | > 977 | –
Nc1ccc(S(=O)(=O)NC(=O)c2ccccc2)cc1 | > 200 | > 200 | –
CCOC(=O)C(=O)Nc1nc2c(s1)C(=O)c1ccccc1C2=O | – | – | inactive
CSc1cc(-c2ccccn2)nc(-c2ccccn2)c1.CSc1cc(-c2ccccn2)nc(-c2ccccn2)c1.[Mn+2].[O-][Cl+3]([O-])([O-])[O-] | > 0.2 | 0.0631 | –
COc1ccc(C[C@@H](CO)NC2=C(C#N)CCC2)cc1 | > 200 | 64.6 | –
Cc1cc(C)n(C(=C(C(Cl)=C(Cl)Cl)[N+](=O)[O-])n2nc(C)cc2C)n1 | > 200 | 4.37 | –
O=S(=O)(c1ccccc1)C1(C2(S(=O)(=O)c3ccccc3)CCN=N2)CCN=N1 (stereo not given) | – | – | inactive

Structure (SMILES) | EC50 [µM] | IC50 [µM] | outcome
CSc1nc(-c2ccc(C)cc2)c(C#N)c(=O)[nH]1 | – | – | inactive
CC(=O)OCC1OC(n2c(C)c(N=Nc3ccc(C)cc3)c(C)c(C#N)c2=S)C(OC(C)=O)C(OC(C)=O)C1OC(C)=O (stereo not given) | > 200 | > 200 | –
COc1cccc(C2C(C(=O)O)=C(CO)Oc3cc4c(cc32)OCO4)c1OC (stereo not given) | – | – | inactive
CN(C)CC1CCCCC(CN(C)C)C1=O (stereo not given) | – | – | inactive
CC(C)(CN1CCCCC1)C(/C=C/c1ccc(Cl)c(Cl)c1)=N\NC(=O)N/N=C(/C=C/c1ccc(Cl)c(Cl)c1)C(C)(C)CN1CCCCC1 | > 200 | 2.24 | –
CN(C)c1ccc(/C=N/Nc2nc3ccccc3c(=O)n2-c2ccccc2)cc1 | > 100 | > 100 | –
NC1c2c(Cl)sc(Cl)c2C(=O)C1O (stereo not given) | > 200 | 35.5 | –
c1ccc(P2(c3ccccc3)=NSN=S=N2)cc1 | > 200 | 74.1 | –
CCCN=Cc1c(O)c(O)c(C(C)C)c2cc(C)c(-c3c(C)cc4c(C(C)C)c(O)c(O)c(C=NCCC)c4c3O)c(O)c12 | > 6.31 | 1.15 | –
N#C/C(=C\c1c[nH]c2ccccc12)C(=O)c1ccc(O)c(O)c1 | > 85.1 | 46.8 | –
CC(C)CCC1(O)O[C@H]2C[C@H]3[C@@H]4CCC5=CC(=O)C=C[C@]5(C)[C@H]4CC[C@]3(C)[C@H]2[C@@H]1C (stereo not given in full) | – | – | inactive
Cc1nc(-c2cccnc2)sc1C(=O)/C=C/c1ccc(Cl)cc1Cl | > 19.1 | > 19.1 | –
COc1c2c(c(OC)c3c(=O)cc(C/C(=N/NC(=O)C[n+]4ccccc4)C(=O)Nc4cc(C)ccc4C)oc13)OCO2 | > 30.9 | > 30.9 | –
NC(=O)Nc1cc(O)ccc1N=Nc1ccc(S(=O)(=O)Nc2ccccn2)cc1 | > 87.1 | > 87.1 | –
Cc1ccccc1CN1C2=NCCN2C(=O)C2=C1CCN(S(=O)(=O)c1ccc(Cl)c(S(N)(=O)=O)c1)C2 | > 200 | 93.3 | –
C=C1C2CC[C@H]3C45C=NC[C@](C)(CCC4)[C@H]5CCC3(C2)[C@H]1O | – | – | inactive
O=C(O)c1ccccc1P12(OC(=O)c3ccccc31)OC(=O)c1ccccc12 | > 209 | 170 | –
C1CC(C2OCOC3COCOC32)OO1 (stereo not given) | > 200 | > 200 | –
C1CSCC2(COC2)CSCCSCC2(COC2)CS1 | > 14.8 | > 14.8 | –
COc1cc2c(cc1O)-c1oncc1CCC2 | > 77.6 | > 77.6 | –
